Experimental data published in EP4534610A1, “FLUOROPHORE COMPOUNDS AND PRODUCTION THEREOF” (Université Fribourg, priority 2023, dated 2025).
Values joined by “and” are separate entries in the source; they are usually repeats but may differ in a detail not shown here. Equal entries are not always repeated.

Experiments:
[1] = Photostability: UV-visible spectra of 5µM solutions after continuous irradiation with 400 nm light (Xenon-arc lamp, 300 Watt); format: physicochemical
Procedure: To examine the stability of the absorbance of PyPeBr and PyPe, 5µM solution (2.5 mL) of the respective compounds were prepared using different solvents. The compounds were then irradiated with 400nm using a Xenon-arc lamp at 300 Watt (25 nm FWHM). Following predefined irradiation periods, indicated in Figures 6A to 6H, UV-visible spectra were collected to monitor the stability of PyPeBr and PyPe in different solvents.

[2] = system: melanoma OVA-B16 cells line; assay: MTT cytotoxicity assay; format: cell-based
Procedure: To this end, cytotoxicity tests using the MTT assay, a standard colorimetric assay for assessing cell metabolic activity known to the person skilled in the art, on melanoma OVA-B16 cells line were performed. […] Cell growth of OVA-16 cells was unaffected after 1h and 24h of exposure of PyPeBr at this concentration.

[3] = Light-induced E/Z isomerisation and photostationary state (X-ray of Zn complex, NMR, UV-Vis); format: physicochemical; conditions: similar irradiation conditions, NMR and UV-visible experiments
Description: Evidence of the efficient photostationary state of PyPe, was provided by exposing a coordination metal complex of E-PyPe with Zn^2+, [Zn(E-PyPe)2Cl2]·2DCM, comprising two PyPe. X-Ray analysis confirmed that prior to irradiation both PyPe in the complex were primarily in E-configuration when coordinated to the Zn^2+ metal centre.
This experiment provided evidence that the light-induced E/Z-configurational change in PyPe reaches a photostationary equilibrium of E/Z-PyPe.
This was achieved by reacting allyl bromide at 40 °C in Acetonitril (MeCN) as described below to produce PyPeBr.

[4] = Photoluminescence emission spectra in different solvents; format: physicochemical
Procedure: The photo-physical properties of these dye molecules with stilbene-like motifs were investigated in different solvents in order to determine their maximum absorption and emission wavelengths (Figures 6A to 6C). The compounds were dissolved in Acetonitrile (CH3CN), chloroform (CHCl3), c-hexane (c-HEX), dichloromethane (DCM), dimethylformamide (DMF), methanol (MeOH), tetrahydrofuran (THF), and toluene (Tol).
The highest emission intensity was detected when THF and c-Hex were used as solvents, with lesser intensity recorded for DMF and Tol. PyPe emits light in the blue range, with emission peaks between 380nm and 550nm. Absolute intensities of up to 3.5 x 10^6 were recorded for PyPe in c-Hex.
The photoluminescence spectra of PyPeBr upon excitation at 440nm when dissolved in CH3CN, CHCl3, DCM, DMF, MeOH, or Tol, and upon excitation at 370 nm when dissolved in c-Hex or THF is shown in Figure 4B. PyPeBr has a relatively broad emission spectrum, which depends on the solvent used. The emission spectrum of PyPeBr can be as broad to cover most of the visible range. This broad emission range offers the possibility to select a desired wavelength for imaging by applying appropriate filters.
PyPh emits light in the blue range, ranging from 400nm to 500nm. […] The loss in stability is due to the self-photobleaching reactions, which are induced by irradiation.
(§1) ^1H-NMR was recorded on 400 MHz (Brucker DRX 400) and ^13C-NMR spectra were recorded on Bruker 100 MHz spectrometer at room temperature with d6-DMSO as a solvent and tetramethylsilane (TMS) as the internal standard. Mass spectra were performed on the Bruker-ION Trap Ms. Fluorescence spectra were measured on an Edinburgh Instruments FS5 Spectrofluorometer. Absorption spectra were determined on a Perkin Elmer UV/VIS Lambda 2 (190-1100 nm) spectrophotometer. IR spectra were recorded on a Perking Elmer FT-IR spectrometer Frontier 4000-400 cm^-1. Single crystal structures were obtained from a STOE-IPDS II (Single crystal diffractometer λ-Mo), solved and refined using SHELXT software package.

[5] = Optical properties in different solvents: emission and absorption maxima, lifetime, quantum yield; format: physicochemical; conditions: for λ^em max: Table 2, excitation not given; for Lifetime, τavr.: multiexponential lifetime represented with τavr.; for Φf: quantum yield determined using integrating sphere
Procedure: as §1

HEK/OVA-B16 cells = assay: Staining and fluorescence imaging of living cells; format: cell-based

For C=CC[n+]1ccc(/C=C/c2ccc3ccc4cccc5ccc2c3c45)cc1.[Br-] [PyPeBr, (E)-1-allyl-4-(2-(pyren-1-yl)vinyl)pyridinium bromide], the “stability of the absorbance under irradiation” value ([1]; 5µM in MeOH, up to 24h) was “only a minor decrease in absorbance after 15 minutes of irradiation but no further significant increase over a 24h irradiation period”, the “capacity to absorb light ranging from 370 nm to 500 nm under irradiation” value ([1]; 5µM in ultra-pure water (MilliQ purification), 24h) was “remained substantially unchanged over a 24h irradiation period” and the “deterioration in cell activity” value ([2]; 50 µM in cell buffered water or water/buffer/DMSO mixtures) was “minor or non-visible signs of deterioration in cell activity”. For the same molecule, the cell growth ([2]; 50 µM, after 1h and 24h of exposure) was “unaffected”, the “rate of E/Z-isomerization” value [3] was “substantially faster than in PyPe” and the highest emission intensity ([4]; dissolved in DMF, excitation at 440nm) was “over 8.5 x 10^6”. The emission peaks ([4]; very broad emission range, listed as General Formula P1.1) was 405 nm and 465 nm and 565 nm, the Knr ([5]; solvent CH3CN) was 3.15 10^8 s^-1 and the kr ([5]; solvent CH3CN) was 1.05 10^8 s^-1. The “λ^em max” value ([5]; solvent CH3CN) was 621 nm, the “Lifetime, τavr.” value ([5]; solvent CH3CN) was 2.38 ns and the Φf ([5]; solvent CH3CN) was 0.25. The Knr ([5]; solvent CHCl3) was 0.06 10^8 s^-1, the kr ([5]; solvent CHCl3) was 6.27 10^8 s^-1 and the “λ^em max” value ([5]; solvent CHCl3) was 609 nm. For the same molecule, the “Lifetime, τavr.” value ([5]; solvent CHCl3) was 1.58 ns, the Φf ([5]; solvent CHCl3) was 0.99 and the Knr ([5]; solvent DCM) was 1.87 10^8 s^-1. The kr ([5]; solvent DCM) was 0.36 10^8 s^-1, the “λ^abs max” value ([5]; solvent DCM) was 492 nm and the “λ^em max” value ([5]; solvent DCM) was 622 nm. The “Lifetime, τavr.” value ([5]; solvent DCM) was 4.5 ns, the Φf ([5]; solvent DCM) was 0.16 and the Knr ([5]; solvent DMF) was 1.79 10^8 s^-1. For the same molecule, the kr ([5]; solvent DMF) was 2.18 10^8 s^-1, the “Lifetime, τavr.” value ([5]; solvent DMF) was 2.52 ns and the Φf ([5]; solvent DMF) was 0.55. The Knr ([5]; solvent MeOH) was 1.33 10^8 s^-1, the kr ([5]; solvent MeOH) was 3.79 10^8 s^-1 and the “λ^em max” value ([5]; solvent MeOH) was 614 nm. For the same molecule, the “Lifetime, τavr.” value ([5]; solvent MeOH) was 1.95 ns, the Φf ([5]; solvent MeOH) was 0.74 and the Knr ([5]; solvent THF) was 3.08 10^8 s^-1. The kr ([5]; solvent THF) was 0.06 10^8 s^-1, the “λ^abs max” value ([5]; solvent THF) was 447 nm and the “λ^em max” value ([5]; solvent THF) was 617 nm. The “Lifetime, τavr.” value ([5]; solvent THF) was 3.18 ns, the Φf ([5]; solvent THF) was 0.02 and the Knr ([5]; solvent Toluene) was 4.21 10^8 s^-1. For the same molecule, the kr ([5]; solvent Toluene) was 0.04 10^8 s^-1, the “λ^abs max” value ([5]; solvent Toluene) was 455 nm and the “λ^em max” value ([5]; solvent Toluene) was 606 nm. The “Lifetime, τavr.” value ([5]; solvent Toluene) was 2.35 ns, the Φf ([5]; solvent Toluene) was 0.01 and the Knr ([5]; solvent c-Hex) was 4.69 10^8 s^-1. The kr ([5]; solvent c-Hex) was 0.10 10^8 s^-1, the “λ^abs max” value ([5]; solvent c-Hex) was 370 nm and the “Lifetime, τavr.” value ([5]; solvent c-Hex) was 2.09 ns. For the same molecule, the Φf ([5]; solvent c-Hex) was 0.02, the “morphological signs of cell toxicity” value (HEK/OVA-B16 cells; 10µM) was “cytosol structure changes were observed” and the “morphological signs of cell toxicity” value (HEK/OVA-B16 cells; 50µM) was “cells became round and started to detach”. The “staining pattern in cells” value (HEK/OVA-B16 cells; HEK/OVA-B16 cells) was “stained the cytoplasm”, the “uptake by living cells” value (HEK/OVA-B16 cells; dyes applied for up to 1 hour at 10µM) was “readily taken up” and the “fluorescence emission spectrum in situ, peak” value (HEK/OVA-B16 cells; in situ, excited at 405 nm) was 565 nm. The solubility in water (Solubility) was “highly soluble in water”.
